Results as given in PMC6277767, “Broad and Region-Specific Impacts of the Synthetic Cannabinoid CP 55,940 in Adolescent and Adult Female Mouse Brains” (Frontiers in Molecular Neuroscience, 2018).

Tested on: CD1 female mouse brain lipidome
Test: Brain-region lipid levels (HPLC/MS/MS lipidomics) 2 h after single i.p. 3 mg/kg CP 55,940 vs vehicle
Assay type: in vivo
Parameters: N-arachidonoyl phenylalanine level, Mean / N-stearoyl tryptophan level, Mean / N-stearoyl proline level, Mean / N-stearoyl leucine level, Mean / N-stearoyl phenylalanine level, Mean / N-stearoyl serine level, Mean / N-stearoyl methionine level, Mean: unit: moles per gram
Details: thalamus
Experimental: The Bloomington Institutional Animal Care and Use Committee of Indiana University reviewed and approved the animal procedures. Female mice from the CD1 strain were utilized to match our study examining THC’s effects on the brain lipidome ([Leishman et al., 2018]). Mice were given a single i.p. injection of either 3 mg/kg CP or 1:1:18 cremophor:ethanol:saline vehicle (please refer to the section “3 mg/kg CP Is Relevant for Synthetic Cannabinoid Abuse and Has Stronger Effects on the Female Mouse Brain Lipidome During Adolescence” for a justification of dose and use of female mice). Three different age groups were given injections: PND 35 and PND 50 adolescents, and adult mice (PND 113). At least eight mice in each age group received CP and at least eight received vehicle. Matching the THC study time course ([Leishman et al., 2018]), mice were sacrificed via rapid decapitation 2 h after injection. Brains were immediately removed and flash-frozen in liquid nitrogen, and then stored at -80°C until dissections were performed. Brains were dissected on an ice-cold dissection plate into the following regions: STR, HIPP, CER, THAL, CTX, HYP, MID, and STEM. These abbreviations for these brain areas will be used exclusively when discussing the results generated by these specific dissections. Each dissected area was immediately placed in liquid nitrogen and then stored at -80°C until used for lipid extraction.
Tissue extracts were performed as previously described ([Bradshaw et al., 2006]; [Stuart et al., 2013]; [Raboune et al., 2014]; [Leishman et al., 2016a],[b], [2017], [2018]). First, samples were shock frozen in liquid nitrogen, weighed, and transferred to a centrifuge tube. The mass of the largest sample was multiplied by 50 to determine how many milliliters of HPLC-grade methanol (Fisher, Fair Lawn, NJ, United States) to add. Then, samples were spiked with 500 pmol deuterium-labeled NAGly (d8NAGly; Cayman Chemical, Ann Arbor, MI, United States). Samples were placed on ice in darkness for 2 h then individually homogenized and centrifuged at 19,000 × g for 20 min at 20°C. Supernatants were diluted with HPLC water (purified in house) to make a solution of 75% water, 25% supernatant. Lipids were partially purified on C18 solid phase extraction columns (Agilent, Palo Alto, CA, United States). A series of four elutions with 1.5 mL of 60%, 75%, 85%, and 100% methanol were collected ([Stuart et al., 2013]; [Leishman et al., 2016a],[b], [2018]).
As previously described ([Bradshaw et al., 2006]; [Tan et al., 2006]; [Smoum et al., 2010]; [Stuart et al., 2013]; [Tortoriello et al., 2013]; [Raboune et al., 2014]; [Leishman et al., 2016a],[b], [2017], [2018]), samples were analyzed using an Applied Biosystems API 3000 triple quadrupole mass spectrometer with electrospray ionization (Foster City, CA, United States). Using an Agilent XDB-C18 reversed phase analytical column and optimized mobile phase gradients, 20 μL from each elution were chromatographed. Two Shimadzu 10ADvp pumps (Columbia, MD, United States) provided the pressure for gradient elution. Mobile phase A: 20% methanol, 80% water (v/v) and 1 mM ammonium acetate (Sigma, St. Louis, MO, United States). Mobile phase B: 100% methanol, 1 mM ammonium acetate. Every method run began with 0% mobile phase B, reached 100% mobile phase B flowing at 0.2 mL/min, and gradually returned to 0% mobile phase B.
This screening library will be referred to as the lipidome when discussing data from this study. HPLC/MS/MS data were analyzed using Analyst software (Applied Biosystems) ([Bradshaw et al., 2006]; [Tan et al., 2006]; [Stuart et al., 2013]; [Tortoriello et al., 2013]; [Raboune et al., 2014]; [Leishman et al., 2016a],[b], [2017], [2018]). Chromatograms (Supplementary Figure 3) were generated by determining the retention time of analytes from the analytical column with a [M-1] or [M+1] parent peak and a fragmentation peak corresponding to the programmed values. […]

[1] = PND 50 female mice, 3 mg/kg CP 55,940
[2] = WT adult female mice, 3mg/kg CP 55,940

## CCCCCCC(C)(C)c1ccc([C@@H]2C[C@H](O)CC[C@H]2CCCO)c(O)c1 [CP 55,940]
PND 50, 3 mg/kg CP 55,940
  N-palmitoyl serine: Direction (relative to Veh): ↓
  N-palmitoyl serine: Magnitude (x Veh level): 0.82 x Veh level
  N-stearoyl serine: Direction (relative to Veh): ↓
  N-stearoyl serine: Magnitude (x Veh level): 0.87 x Veh level
  Oleic acid: Direction (relative to Veh): ↓
  Oleic acid: Magnitude (x Veh level): 0.83 x Veh level
  PGE2: Direction (relative to Veh): ↓
  PGE2: Magnitude (x Veh level): 0.74 x Veh level
  PGF2α: Direction (relative to Veh): ↓
  PGF2α: Magnitude (x Veh level): 0.84 x Veh level
[1]
  2-arachidonoyl glycerol level, Mean: 2.19E-10
  2-linoleoyl glycerol level, Mean: 2.06E-10
  2-oleoyl glycerol level, Mean: 2.79E-09
  2-palmitoyl glycerol level, Mean: 1.02E-09
  6-ketoPGF1α level, Mean: 1.21E-11
  11-OH-THC level, Mean: BDL
  11-nor-9-carboxyTHC level, Mean: BDL
  Arachidonic acid level, Mean: 3.32E-10
  Cannabidiol level, Mean: BDL
  Linoleic acid level, Mean: 2.28E-10
  N- stearoyl valine level, Mean: 1.2E-13
  N-arachidonoyl GABA level, Mean: 1.06E-11
  N-arachidonoyl dopamine level, Mean: BDL
  N-arachidonoyl ethanolamine level, Mean: 3.67E-11
  N-arachidonoyl glycine level, Mean: 2.22E-12
  N-arachidonoyl phenylalanine level, Mean: 2.35E-13
  N-arachidonoyl proline level, Mean: BDL
  N-arachidonoyl serine level, Mean: 9.47E-12
  N-arachidonoyl taurine level, Mean: 2.48E-11
  N-arachidonoyl tryptophan level, Mean: BDL
  N-arachidonoyl tyrosine level, Mean: 3.46E-13
  N-docosahexaenoyl GABA level, Mean: 1.17E-12
  N-docosahexaenoyl ethanolamine level, Mean: 4.85E-11
  N-docosahexaenoyl glycine level, Mean: 2.76E-13
  N-docosahexaenoyl leucine level, Mean: 1.83E-13
  N-docosahexaenoyl proline level, Mean: BDL
  N-docosahexaenoyl serine level, Mean: 1.8E-11
  N-docosahexaenoyl tryptophan level, Mean: BDL
  N-docosahexaenoyl tyrosine level, Mean: 5.89E-13
  N-docosahexaenoyl valine level, Mean: BDL
  N-linoleoyl GABA level, Mean: 6.3E-13
  N-linoleoyl ethanolamine level, Mean: 5.72E-11
  N-linoleoyl glycine level, Mean: 1.48E-13
  N-linoleoyl leucine level, Mean: 4.17E-14
  N-linoleoyl proline level, Mean: BDL
  N-linoleoyl serine level, Mean: 6.59E-11
  N-linoleoyl tryptophan level, Mean: BDL
  N-linoleoyl valine level, Mean: BDL
  N-nervonoyl valine level, Mean: BDL
  N-oleoyl GABA level, Mean: 4.02E-12
  N-oleoyl alanine level, Mean: 7.11E-13
  N-oleoyl dopamine level, Mean: BDL
  N-oleoyl ethanolamine level, Mean: 9.26E-11
  N-oleoyl glycine level, Mean: 1.74E-12
  N-oleoyl leucine level, Mean: 5.99E-13
  N-oleoyl methionine level, Mean: 2.91E-13
  N-oleoyl phenylalanine level, Mean: 9.22E-13
  N-oleoyl proline level, Mean: BDL
  N-oleoyl serine level, Mean: 1.27E-10
  N-oleoyl tryptophan level, Mean: BDL
  N-oleoyl tyrosine level, Mean: 4.03E-13
  N-palmitoyl GABA level, Mean: 1.06E-11
  N-palmitoyl alanine level, Mean: 2.52E-12
  N-palmitoyl ethanolamine level, Mean: 7.34E-11
  N-palmitoyl glycine level, Mean: 9.61E-12
  N-palmitoyl leucine level, Mean: 1.53E-12
  N-palmitoyl methionine level, Mean: 1.27E-12
  N-palmitoyl phenylalanine level, Mean: 1.34E-12
  N-palmitoyl proline level, Mean: BDL
  N-palmitoyl serine level, Mean: 2.63E-11
  N-palmitoyl tryptophan level, Mean: BDL
  N-palmitoyl tyrosine level, Mean: 8.81E-13
  N-palmitoyl valine level, Mean: 1.92E-13
  N-stearoyl GABA level, Mean: 1.06E-11
  N-stearoyl alanine level, Mean: 5.6E-13
  N-stearoyl ethanolamine level, Mean: 3.31E-11
  N-stearoyl glycine level, Mean: 1.16E-12
  N-stearoyl leucine level, Mean: 1.04E-12
  N-stearoyl methionine level, Mean: 8.73E-13
  N-stearoyl phenylalanine level, Mean: 1.21E-12
  N-stearoyl proline level, Mean: BDL
  N-stearoyl serine level, Mean: 4.06E-11
  N-stearoyl tryptophan level, Mean: BDL
  N-stearoyl tyrosine level, Mean: 1.18E-13
  Oleic acid level, Mean: 3.18E-10
  PGE2 level, Mean: 8.74E-11
  THC level, Mean: BDL
[2]
  2-arachidonoyl glycerol level, Mean: 3E-09
  2-linoleoyl glycerol level, Mean: 2.71E-10
  2-oleoyl glycerol level, Mean: 3.61E-09
  2-palmitoyl glycerol level, Mean: 8.84E-11
  6-ketoPGF1α level, Mean: 3.33E-11
  Arachidonic acid level, Mean: 9.32E-10
  Linoleic acid level, Mean: 4.92E-10
  N-arachidonoyl GABA level, Mean: 2.04E-11
  N-arachidonoyl alanine level, Mean: 9.44E-13
  N-arachidonoyl ethanolamine level, Mean: 1.69E-11
  N-arachidonoyl glycine level, Mean: 5.38E-13
  N-arachidonoyl phenylalanine level, Mean: 1.15E-13
  N-arachidonoyl taurine level, Mean: 5.3E-11
  N-arachidonoyl tyrosine level, Mean: 6.37E-13
  N-docosahexaenoyl GABA level, Mean: 9.36E-12
